Results reported in ChEMBL document CHEMBL2040706, “Inhibition of hepatitis C virus NS3 helicase by manoalide” (J Nat Prod, 2012).
Calls of active or inactive are those of the source. No cut-off for these calls is given here.

Assays:
Hepacivirus hominis [1] = test: Inhibition of HCV NS3 ATPase activity using [32Pgamma]ATP as substrate at 0.1 mM after 60 mins by thin layer chromatography analysis in the absence of poly(U)RNA
Hepacivirus hominis [2] = test: Inhibition of HCV NS3 RNA helicase activity using […] as substrate measured every 5 secs for 5 mins and every 30 secs up to 30 mins by photoinduced electron transfer-based fluorescence assay
Hepacivirus hominis [3] = test: Noncompetitive inhibition of HCV NS3 ATPase activity using 1 to 8 mM [32gamma]ATP at 0.1 mM by Lineweaver-Burk plot analysis
Hepacivirus hominis [4] = test: Binding affinity to HCV NS3 helicase assessed as increase in fluorescence after 15 mins by isothermal denaturation assay
[5] = (§1) Inhibition of HCV NS3 ATPase activity using [32gamma]ATP as substrate after 30 mins by thin layer chromatography analysis in the presence of poly(U)RNA; parameters: species or system Hepacivirus hominis
Hepacivirus hominis [6] = test: as §1
[7] = Inhibition of HCV NS3 RNA helicase activity using [32Pgamma]-labelled partial duplex RNA as substrate incubated for 15 mins prior to ATP addition measured after 30 mins by PAGE analysis; parameters: species or system Hepacivirus hominis
Hepacivirus hominis [8] = test: Inhibition of HCV NS3 binding to human 5'-[32Pgamma]-labelled lethal-7 microRNA precursor ssRNA at 0.1 mM after 15 mins by PAGE analysis
[9] = target: T1, ATP-dependent DNA/RNA helicase DHX36 (Homo sapiens) (UniProt Q9H2U1); test: Inhibition of human DHX36/RHAU ATPase activity using [32Pgamma]ATP as substrate for 30 mins in the presence of poly(U)RNA
T1 sequence (whole entry): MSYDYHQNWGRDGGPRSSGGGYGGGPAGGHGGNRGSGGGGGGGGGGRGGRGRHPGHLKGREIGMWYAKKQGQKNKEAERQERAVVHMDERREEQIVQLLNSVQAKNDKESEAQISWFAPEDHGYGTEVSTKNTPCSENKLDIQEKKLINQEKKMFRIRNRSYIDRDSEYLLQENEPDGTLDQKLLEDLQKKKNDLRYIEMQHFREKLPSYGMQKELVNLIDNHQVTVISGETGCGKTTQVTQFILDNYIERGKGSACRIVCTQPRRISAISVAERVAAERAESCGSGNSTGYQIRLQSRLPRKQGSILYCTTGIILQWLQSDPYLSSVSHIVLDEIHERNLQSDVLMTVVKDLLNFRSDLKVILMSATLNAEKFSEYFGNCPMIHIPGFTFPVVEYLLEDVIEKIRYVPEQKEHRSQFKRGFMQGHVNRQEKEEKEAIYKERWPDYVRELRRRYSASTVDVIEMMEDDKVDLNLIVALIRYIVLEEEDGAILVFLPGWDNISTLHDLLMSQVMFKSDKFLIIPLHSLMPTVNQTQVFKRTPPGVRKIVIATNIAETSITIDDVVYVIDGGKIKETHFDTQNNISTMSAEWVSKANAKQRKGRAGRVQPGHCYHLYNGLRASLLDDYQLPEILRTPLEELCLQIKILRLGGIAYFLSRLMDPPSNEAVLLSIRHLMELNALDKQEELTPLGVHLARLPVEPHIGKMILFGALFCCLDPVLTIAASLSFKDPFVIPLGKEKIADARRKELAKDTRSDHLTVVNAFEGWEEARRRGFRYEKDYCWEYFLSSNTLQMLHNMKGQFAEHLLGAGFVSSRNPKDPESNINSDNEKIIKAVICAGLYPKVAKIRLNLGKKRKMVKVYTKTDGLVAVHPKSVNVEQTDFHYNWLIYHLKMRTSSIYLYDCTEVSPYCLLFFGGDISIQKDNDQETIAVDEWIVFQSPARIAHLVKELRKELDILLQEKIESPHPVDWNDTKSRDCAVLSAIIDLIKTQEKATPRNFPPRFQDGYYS

Q: What does the source list for `CC1=C(CC/C(C)=C/CCC2=CC[C@H](C3=CC(=O)O[C@H]3O)O[C@H]2O)C(C)(C)CCC1` [MANOALIDE]?
A: inhibition (Hepacivirus hominis [1]): Active; inhibition (Hepacivirus hominis [2]): Active; inhibition (Hepacivirus hominis [3]): Active; Activity (Hepacivirus hominis [4]): Dose-dependent effect; IC50 [5]: 70 µM; inhibition (Hepacivirus hominis [6]): Dose-dependent effect; IC50 [7]: 15 µM; inhibition (Hepacivirus hominis [8]): Active; inhibition [9]: Active
